Data taken from article PMC10470313, “Developing a peptide to disrupt cohesin head domain interactions” (iScience, 2023).
Where no end group is shown, it is not given here.

What was measured:
Smc3 head domain = molecular target: T1, Smc3 head domain (Saccharomyces cerevisiae, UniProt P47037); test: Field-effect biosensing (FEB Agile R100) binding of peptide to Smc3 head domain; settings: 500 nM peptide immobilized on graphene chip, Hill fit or kon/koff
T1 construct: C′ terminal (amino acids 1001-1230); linker […]; made in house; host or cells: E. coli BL21
T1 sequence (P47037 with tags, fused parts or gaps): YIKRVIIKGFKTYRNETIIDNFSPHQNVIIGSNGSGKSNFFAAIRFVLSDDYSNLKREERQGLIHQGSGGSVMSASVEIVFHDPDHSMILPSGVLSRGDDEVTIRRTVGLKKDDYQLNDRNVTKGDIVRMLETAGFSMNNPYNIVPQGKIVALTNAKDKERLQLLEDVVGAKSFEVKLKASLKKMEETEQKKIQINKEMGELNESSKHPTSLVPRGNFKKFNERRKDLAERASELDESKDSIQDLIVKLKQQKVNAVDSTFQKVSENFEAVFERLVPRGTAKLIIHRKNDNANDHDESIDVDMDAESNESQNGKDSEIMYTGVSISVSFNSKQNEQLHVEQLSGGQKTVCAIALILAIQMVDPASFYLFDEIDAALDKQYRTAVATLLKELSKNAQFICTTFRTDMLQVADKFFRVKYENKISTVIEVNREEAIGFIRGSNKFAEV
Description: Accordingly, we explored the ability of CIP3 to bind Smc3 in-vitro. We synthesized CIP3-TAT and purified it (Figures S2A and S2B. Purification of CIP3-TAT and Smc3 head domain, related to Figure 3), and the kinetic binding of the peptide to a purified Smc3 head domain (Figures S2C and S2D. Purification of CIP3-TAT and Smc3 head domain, related to Figure 3) was explored by FEB Agile R100 (Figures 3C and 3D). The binding kinetics is determined by measuring the current of the chip that is changed when the analyzed molecules form a complex. The peptide was immobilized on the sensor chip, and the analyte, purified Smc3 head domain, was applied in solution to the chip. The changes in the current were monitored as increasing concentrations of analyte were applied to the chip. […]
The binding kinetics of cohesin-inhibiting peptide 3 (CIP3) to Smc3 were measured by field-effect biosensing (FEB) Agile R100 label-free binding assay (Cardea), following their standard protocol, and as we have done previously,.[65]^,[66]^,[67] […] Next, PBS was aspirated, and the changes in the baseline current were monitored in real-time, using 20 μM, 50 μM, 100 μM, 200 μM, 500 μΜ, 1000 μM, 1500 μM, 2000 μM, and 4000 μM of purified Smc3 head domain. Kd values were calculated using DataLINE 2.0 software by applying either a Hill equation fit or using kon and koff values at a single concentration. […]

[1] = test system: Smc3-GFP (cohesin holocomplex) in yeast protein extract; test: Microscale thermophoresis (MST) binding in yeast cell extract; settings: 10 μM CIP3-TAT (Fig S3; method b75: 5 μM), extract of yAM-945 strain, MST binding mode, no binding constants
Description: We validated the in vitro binding of CIP3 to Smc3 by exploring the formation of the complex in a yeast cell extract in which Smc3 was fused to GFP. Protein extract from the yAM-945 strain containing Smc3-GFP was supplemented with 10 μM CIP3-TAT and analyzed by microscale thermophoresis (MST) in binding mode. In this assay, the migration of a fluorescent protein in a microscale temperature gradient is monitored. Changes in the physical-chemical properties of the protein, induced by interaction with another protein or a small molecule, will change the migration properties of the protein. While biochemical constants of the binding cannot be determined under these conditions, as the concentration of Smc3-GFP in the extract is undetermined.
Yeast strain yAM-945 cells containing Smc3-GFP were grown in SD-URA galactose to mid-log phase. Cells were collected by centrifugation and washed with water. The cell pellet was resuspended in 350 μl of MST Buffer (NanoTemper) supplemented with 0.05% Tween-20 (Sigma). Glass beads were added, and cells were lyzed by 4 cycles of 1 minute in a bullet blender (next advance). The protein extract was clarified by centrifugation at 1000 g for 5 minutes. […] The formation of the CIP3-TAT and cohesin complex was analyzed by Monolith NT.115 (NanoTemper) in the binding mode that detects the formation of complexes without calculating the binding constants.

What does the source list for KRFKDMEYLSGGEKTGGYGRKKRRQRRR [CIP3-TAT]?
Kd (Smc3 head domain; with ATP (10 mM), Smc3 incubated with ATP before measuring, Smc3 head domain 20-4000 μM (0.02–4 mM)): 544.2 ± 0.06 nM; Kd (Smc3 head domain; without ATP, Smc3 head domain 20-4000 μM (0.02–4 mM) in PBS): 53.86 ± 0.03 nM; complex formation with Smc3-GFP/cohesin [1]: supported the formation of the Smc3/CIP3 complex
